Patent US20250177548A1, “FUSOGENIC PEPTIDE COMPOSITIONS AND METHODS OF CARGO DELIVERY” (CLEMSON UNIVERSITY, priority 2022, published 2025)
Several values for one entry are separate records, joined by “and”; a condition that tells them apart may be missing. Equal entries are not always repeated. Non-standard residues stand in square brackets, D forms with d. No end group written: not given here. pG = not defined here

Tests used:
Format in all cases: cell-based
CAOV3 cells = experiment: cellular uptake of labeled siRNA by flow cytometry; conditions: for uptake efficiency: 80:1
Description: Cellular Uptake. OVCAR3 and CAOV3 cells were prepared at 50,000 cells per well in a 24-well plate. […] Post-incubation, media was aspirated and cells were washed with 1× PBS. To counterstain the nuclei, SuperSignal NucBlue Hoechst stain (Thermo Fisher, Waltham, MA) was added to the cells for 30 minutes, followed by an additional 1×PBS wash. Subsequent imaging was performed using an EVOS FL Microscope (Thermo Fisher) at 10× magnification. For flow cytometric analysis, cells were detached, resuspended in 1× PBS, and analyzed using an Attune NXT Acoustic flow cytometer (Invitrogen, Carlsbad, CA) with the blue laser line and BL2 (574/26 nm) channel.
Cellular Uptake and Targeting Specificity. Observation of cell uptake was performed by seeding OVCAR3 and CAOV3 cells at a density of 50,000 cells per well in a 24-well plate. LHRH and LHRH-DIV3W peptides were complexed with […] as previously described and delivered to cells at 20:1 to 80:1 N:P ratios. Each cell line was incubated with tandem peptide complexes for both 4- and 24-hour treatment periods. Following incubation, cell media was removed, and cells were washed with 1× PBS prior to the addition of 500 μL of 1×PBS and SuperSignal NucBlue Hoescht 33342 nuclear stain (Thermo Fisher, Waltham, MA). Cellular imaging was completed using an EVOS FL Microscope (Thermo Fisher) at 10×, 20×, and 40× magnification. Flow cytometry was completed after cell imaging and cells were trypsinized, resuspended in 1×PBS, and analyzed with an Attune NXT Acoustic Flow Cytometer (Invitrogen) with the red laser line and RL2 […] channel.

CSNK2A1 mRNA = experiment: qPCR of CSNK2A1 mRNA in OVCAR3 cells
Description: qRT-PCR. Cells were seeded at 50,000 cells per well and treated with siRNA targeting CSNK2A1 (siCSNK2A1 #s3638, Thermo Fisher Scientific) at increasing N:P ratios and incubated for a total of 48 hours in McCoys 5A/DMEM-10% FBS. Treated cells were washed with 1×PBS at 24 hours and fresh media was added. RNAisolation was completed using a Qiagen Mini-RNeasy Kit (Qiagen, Hilden, Germany) according to the manufacturer's protocol. RNA isolation quality and quantity were measured through the Gen5 protocol using a Take3 plate (BioTek). RNA was reverse-transcribed using the QuantiTect Reverse Transcription kit (Qiagen). Quantitative real-time PCR was completed with a QuantStudio 3 qPCR system (Applied Biosystems) using Applied Biosystems TaqMan FAST Master Mix (Thermo Fisher) and CSNK2A1 (ID #Hs00751002_s1) and 18S (ID #Hs99999901_s1) predesigned TaqMan probes, according to the manufacturer's protocol.
Gene and Protein Knockdown. Bioactivity of siRNAs was determined via qPCR and western blot analysis. OVCAR3 or CAOV3 cells were seeded at 50,000 cells per well as previously described and treated with siRNA targeting CSNK2A1 and siNT at N:P ratios 30:1, 40:1, 50:1, 60:1, and 70:1. LHRH-DIV3W peptide complexed with either siNT or siCSNK2A1 was incubated for a total of 48 hours in RPMI 1640/DMEM-10% FBS, with one media exchange occurring after the 24-hour timepoint. Treated cells were washed with 1×PBS at 24 hours and fresh media was added. RNA isolation was completed using a Qiagen Mini-RNeasy Kit (Qiagen, Hilden, Germany) according to the manufacturer's protocol. RNA isolation quality and quantity was measured through the Gen5 protocol using a Take3 plate (BioTek). RNA was reverse transcribed using the QuantiTect Reverse Transcription kit (Qiagen) according to the manufacturer's protocol. Quantitative real-time PCR was completed with a QuantStudio 3 qPCR system (Applied Biosystems, Waltham, MA) using Applied Biosystems TaqMan FAST Master Mix (Thermo Fisher) and CSNK2A1 (ID #Hs00751002_s1) and 18S (ID #Hs99999901_s1) predesigned TaqMan probes according to the manufacturer's protocol.

CK2α protein = experiment: Western blot of CK2α in OVCAR3 cells; conditions: OVCAR3, 48 hours, 50:1 N:P ratio
Description: Western Blot. […] Cells were washed and treated with DIV3 (X)-siRNA complexes as previously described. Following the 48-hour treatment, cells were washed with 1× PBS and lysed with cold radioimmunoprecipitation assay (RIPA) buffer supplemented with protease inhibitor cocktail (Thermo Fisher). Protein concentrations were determined via bicinchoninic assay according to the manufacturer's protocol and absorbance was read at 562 nm. Equivalent protein concentrations for each treatment condition were separated by SDS-PAGE on a BioRad Stain-Free 10% gel according to BioRad protocols and transferred to a Stain-Free PVDF membrane using a wet transfer system. The PVDF membrane was cut at appropriate molecular weight intervals consistent with protein weights, then analyzed and blocked for 1 hour with 5% non-fat dried milk solution in 1× Tris-HCl-buffered-saline-0.1% Tween 20 (TBST) at room temperature. Blots were probed at 4° C. overnight with rabbit monoclonal anti-CK2α antibody (1:1000, Invitrogen) or mouse monoclonal anti-β-actin (1:10,000, Sigma-Aldrich, St. Louis, MO). […] Five additional washes with 1× TBST were performed and protein bands were detected with SuperSignal West Pico Plus Chemiluminescent Substrate (Thermo Fisher) and imaged using a BioRad ChemiDoc Imaging System.

“pGHWSY-(d) LLRPGGGGGWEADIVADIVWDIVADIVAGGG-(d) RRRRRRRRR ([pG]HWSY[dL]LRPGGGGGWEADIVADIVWDIVADIVAGGG[dR][dR][dR][dR][dR][dR][dR][dR][dR]; reading uncertain) [LHRH-DIV3W]” was tested, and the “uptake efficiency higher than DIV3W uptake” value (CAOV3 cells; CAOV3) was 11%, the uptake efficiency (CAOV3 cells; CAOV3, siNT-Cy5.5, 4 hours) was 36.19%+9.67% and 36.19%±16.76% and the uptake efficiency (CAOV3 cells; CAOV3, siNT-Cy5.5, 24 hours) was 63.47%+4.61% and 63.4%±4.6%. For the same substance, the “CSNK2A1 mRNA expression, % of negative control” value (“CSNK2A1 mRNA expression, %” below) (CSNK2A1 mRNA; 50:1, vs LHRH-DIV3W-siNT) was 59.75%±12.61%, the “CSNK2A1 mRNA expression, %” value (CSNK2A1 mRNA; 60:1, vs LHRH-DIV3W-siNT) was 72.17%±23.19% and the “CSNK2A1 mRNA expression, %” value (CSNK2A1 mRNA; 70:1, vs LHRH-DIV3W-siNT) was 51.88%±9.87%. The CK2α protein expression (CK2α protein) was “slight reduction in protein band intensity”.
